Test results: publication PMC9268615, “Identification of Anti-Proliferative Compounds from Genista monspessulana Seeds through Covariate-Based Integration of Chemical Fingerprints and Bioactivity Datasets” (Molecules, 2022)
Several values for one entry are separate records, joined by “and”; a condition that tells them apart may be missing. Equal entries are not always repeated. Where two headings read alike, the source gives them in different places.

Tests used:
[1] = system: PC-3 (human prostate adenocarcinoma); test: MTT cell viability assay, PC-3; format: cell-based; details: for IC50: pure compounds, MTT, 48 h incubation
Experimental: (§1) Human prostatic adenocarcinoma (PC-3, ATCC CRL-7934), human lung adenocarcinoma (A549, ATCC CCL-185), and human cervical carcinoma (SiHa, ATCC HTB-35) cancer cell lines and normal mouse fibroblasts (L929, ATCC CRL-6364) were maintained in a humidified atmosphere with 5% CO2 at 37 °C, and grown as a monolayer culture in Dulbecco’s Modified Eagle Medium (DMEM) medium with 10% (v/v) fetal bovine serum (FBS), 1% (v/v) penicillin, and 1% (v/v) streptomycin. The anti-proliferative effects of G. monspessulana extracts and isolated compounds were measured according to a reported method. Cell suspension (100 µL, 5 × 10^3 cells/well) was inoculated in 96-well plates and cultured for 24 h. After that, the culture medium was replaced with a serum-free medium (100 µL) containing different concentrations of treatments (0.8–500 µg/mL for extracts and 0.16–100 µg/mL for pure compounds). Extracts and compounds were measured in triplicate. A PBS-containing free medium was used as a blank, 1% (w/v) bovine serum albumin-amended medium as negative control (100% survival), and curcumin (0.16–100 µg/mL) was used as the positive control. After 48 h of incubation, the cell viability was assessed by adding MTT (10 µL, 5 mg/mL) to each well, and the plates were subsequently incubated under 5% CO2 at 37 °C for 3 h. Formazan crystals were dissolved with 100 µL of DMSO. Absorbance was measured at 570 nm using a Varioskan LUX 96-well plate reader (Thermo Fisher Scientific, Waltham, MA, USA). The anti-proliferative effects were expressed as half-maximal inhibitory concentration (IC50) in µg/mL (extracts) and µM (compounds). The IC50 values were calculated from the dose-response curves through non-linear regression using GraphPad 5.0 (GraphPad Software, San Diego, CA, USA).

[2] = system: SiHa (human cervical carcinoma); test: MTT cell viability assay, SiHa; format: cell-based; details: for IC50: Homo sapiens, SiHa, pure compounds, MTT, 48 h incubation
Experimental: as §1

[3] = system: A549 (human lung carcinoma); test: MTT cell viability assay, A549; format: cell-based; details: for IC50: Homo sapiens, A549, pure compounds, MTT, 48 h incubation
Experimental: as §1

[4] = system: L929 (normal mouse fibroblasts); test: MTT cell viability assay, L929 fibroblasts; format: cell-based; details: 48 h incubation; for IC50: Mus musculus, L929, pure compounds; for IC50 L929: pure compounds
Experimental: as §1

[5] = system: SMMC-7721 (hepatocellular carcinoma) cells; design: method as in PMID 29330507; details: cited from earlier work
A549 cell line = details: read-out: IC50 A549; cytotoxic through apoptosis induction; cited from earlier work
[6] = system: HepG2 (human hepatocellular carcinoma) cell line; details: cited from earlier work
FaDu cell line = details: cited from earlier work
MCF-7 cell line = details: cited from earlier work
MDA-MB cell line = details: cited from earlier work
[7] = system: various cancer cell lines (KB, P-388, HL-60, K-562, MOLT-4, H2108, H1299, MRC-5, 786-O, Caki1, SN12C, SH-SY5Y, A375, SK-MEL-1, Eca109, KYSE30, HCT-116, SW480); design: method as in PMID 31551770; details: cytotoxicity; cited from earlier work
PC-3 = system: PC-3; design: method as in doi:10.1590/S0103-50532012000300015; details: cited from earlier work
HL-60 cell line [8] = system: HL-60 cell line; design: method as in PMID 16887297; details: cytotoxic activity; cited from earlier work
HL-60 cell line [9] = system: HL-60 cell line; design: method as in PMID 23850732; details: cited from earlier work
K-562 cell line = system: K-562 cell line; design: method as in PMID 23850732; details: cited from earlier work
MOLT-4 cell line = system: MOLT-4 cell line; design: method as in PMID 23850732; details: cited from earlier work
[10] = system: MCF-7 (human breast cancer cell line); design: method as in PMID 30467293; details: vs cytisine and (−)-maackiain; cited from earlier work
[11] = system: MDA-MB-231 (human breast cancer cell line); design: method as in PMID 30467293; details: vs cytisine and (−)-maackiain; cited from earlier work

Compound | IC50 ([1]; Homo sapiens, 48 h) [µM] | IC50 [2] [µM] | IC50 [3] [µM] | IC50 [4] [µM] | further results
O=C1CCC=C2C3CC(CN12)C1CCCCN1C3 (single isomer, unassigned; (+)) [Compound 7, (+)-5,6-dehydrolupanine] | 31.5 | > 406 | > 406 | 85.9 | 
CN1CC2CC(C1)c1cccc(=O)n1C2 (single isomer, unassigned; (-)) [Compound 5, (–)-N-methylcytisine] | 28.4 | > 490 | 36.3 | 91.3 | proliferation of SMMC-7721 cells [5]: can inhibit the proliferation
O=c1cccc2n1C[C@@H]1CNC[C@H]2C1 [Compound 1, (–)-cytisine] | < 18.6 | 357 | 42.5 | 103 | IC50 [1]: 15.8 µM; IC50 (A549 cell line): 26.8 µM; effect on HepG2 cell line [6]: inducing mitochondrial-mediated apoptosis; effect on FaDu cell line (FaDu cell line): not affected; effect on MCF-7 cell line (MCF-7 cell line): not affected; effect on MDA-MB cell line (MDA-MB cell line): not affected
CC1(C)C=Cc2c(cc3occ(-c4ccc(O)cc4)c(=O)c3c2O)O1 [Compound 2, alpinumisoflavone] | < 18.6 | 19.6 | > 303 | > 297 | IC50 [1]: 18.6 µM; IC50 L929 [4]: inactive; IC50 [7]: < 70 µM; IC50 (PC-3): < 30 µM
O=C1[C@@H]2C[C@H](CN3CCCC[C@@H]23)[C@H]2CCCCN12 [Compound 3, (+)-aphylline] | 21.3 | > 403 | > 403 | 22.3 | 
O=c1cccc2n1C[C@H]1C[C@@H]2CN2CCCC[C@H]12 [Compound 4, (–)-anagyrine] |  | > 409 | > 409 | 36.5 | IC50 ([1]; Homo sapiens): 33.5 µM; IC50 (HL-60 cell line [8]): 18 µM
CC(C)=CCc1c(O)cc2occ(-c3ccc(O)cc3)c(=O)c2c1O [Compound 6, wighteone] | 34.3 | > 296 | > 296 | > 296 | IC50 L929 [4]: inactive; IC50 (HL-60 cell line [9]): > 70 µM; IC50 (K-562 cell line): > 70 µM; IC50 (MOLT-4 cell line): > 70 µM
CC1(C)C=Cc2c(cc3occ(-c4ccc(O)c(CN5C[C@@H]6C[C@H](C5)c5cccc(=O)n5C6)c4)c(=O)c3c2O)O1 [Compound 8, (–)-3′-(N-cytisine)methylalpinumisoflavone] |  | 17.5 | 46.8 | 385 | IC50 ([1]; Homo sapiens): 10.1 µM; selectivity index (SI = IC50 normal cells/IC50 cancer cells) PC-3 ([1]; L929 vs PC-3): 38.1 and > 30; selectivity index (SI = IC50 normal cells/IC50 cancer cells) SiHa ([2]; L929 vs SiHa): 22.0; selectivity index (SI = IC50 normal cells/IC50 cancer cells) A549 ([3]; L929 vs A549): 8.2
COc1cc(/C=C/C(=O)CC(=O)/C=C/c2ccc(O)c(OC)c2)ccc1O [curcumin, reference compound] | 9.5 | 6.5 | 8.4 | 105 | 
tonkinensine B |  |  |  |  | fold better activity than respective precursors, MCF-7 [10]: 2–3 fold; fold better activity than respective precursors, MDA-MB-231 [11]: 2–3 fold
